Test results: patent US8053603B2, “Tetralone-based monoamine reuptake inhibitors” (Sunovion Pharmaceuticals Inc., priority 2006, dated 2011)
Like-named read-outs stand apart in the source and are kept apart here.

How the values were obtained:
Type in all cases: cell-based
[1] = target: T1, recombinant human serotonin transporter (Homo sapiens, UniProt P31645); test: Serotonin functional uptake assay for human reuptake transporter; conditions: [3H]serotonin uptake, HEK-293 cells expressing human serotonin transporter; read-out: Human IC50 (nM) SERT
T1 construct: expressed in transfected cells; host or cells: HEK-293
Protocol: Serotonin Functional Uptake Assay for Human Reuptake Transporter
HEK-293 cells expressing human serotonin transporter were plated before the assay. […] Cells with internalized [^3H]serotonin were washed and the amount of tritium taken into cells is counted using a liquid scintillation counter to determine [^3H]serotonin uptake.

[2] = target: T2, recombinant human norepinephrine transporter (Homo sapiens, UniProt P23975); test: Norepinephrine functional uptake assay for human reuptake transporter; conditions: [3H]norepinephrine uptake, HEK293 or MDCK cells expressing human norepinephrine transporter
T2 construct: expressed in transfected cells; host or cells: HEK293 or MDCK
Protocol: Norepinephrine Functional Uptake Assay for Human Reuptake Transporter
The cells were plated before the assay. Test compound and/or vehicle was preincubated with cells in modified HEPES buffer pH 7.1 or pH 7.4 for 20 minutes at 18 to 25° C. . […] After the cells were washed to remove [^3H]norepinephrine not internalized, the cells were lysed, and the amount of tritium in the cell lysate was measured using a liquid scintillation counter to determine [^3H]norepinephrine uptake. Non-specific binding of tritium was measured in a control reaction containing 10 μM imipramine (or 10 μM nisoxetine), and was subtracted from the counts for assays to correct for non-specific binding of tritium. Reduction of [^3H]norepinephrine uptake by 50 percent or more (≧50%) relative to an uninhibited control reaction indicates significant inhibitory activity.

[3] = target: T3, recombinant human dopamine transporter (Homo sapiens, UniProt Q01959); test: Dopamine functional uptake assay for human reuptake transporter; conditions: [3H]dopamine uptake, CHO-K1 or HEK293 cells expressing human dopamine transporter; read-out: Human IC50 (nM) DAT
T3 construct: expressed in transfected cells; host or cells: CHO-K1 or HEK293
Protocol: Dopamine Functional Uptake Assay for Human Reuptake Transporter
Either CHO-K1 or HEK293 cells expressing human recombinant dopamine transporter were plated before the assay. Test compound and/or vehicle was preincubated with cells in modified HEPES buffer pH 7.1 or pH 7.4 for 20 minutes at 18 to 25° C. and 50 nM [^3H]dopamine was then added for an additional timed incubation period (10 to 30 minutes). After washing the cells to remove [^3H]dopamine not internalized, the cells were lysed, and the amount of tritium in the lysate was measured using a liquid scintillation counter to determine [^3H]dopamine uptake. Non-specific binding of tritium was measured in a control reaction containing 10 μM nomifensine, and was subtracted from the counts for assays to correct for non-specific binding of tritium. Reduction of [^3H]dopamine uptake by 50 percent or more (≧50%) relative to an uninhibited control reaction indicates significant inhibitory activity.

T3 sequence (Q01959 whole entry): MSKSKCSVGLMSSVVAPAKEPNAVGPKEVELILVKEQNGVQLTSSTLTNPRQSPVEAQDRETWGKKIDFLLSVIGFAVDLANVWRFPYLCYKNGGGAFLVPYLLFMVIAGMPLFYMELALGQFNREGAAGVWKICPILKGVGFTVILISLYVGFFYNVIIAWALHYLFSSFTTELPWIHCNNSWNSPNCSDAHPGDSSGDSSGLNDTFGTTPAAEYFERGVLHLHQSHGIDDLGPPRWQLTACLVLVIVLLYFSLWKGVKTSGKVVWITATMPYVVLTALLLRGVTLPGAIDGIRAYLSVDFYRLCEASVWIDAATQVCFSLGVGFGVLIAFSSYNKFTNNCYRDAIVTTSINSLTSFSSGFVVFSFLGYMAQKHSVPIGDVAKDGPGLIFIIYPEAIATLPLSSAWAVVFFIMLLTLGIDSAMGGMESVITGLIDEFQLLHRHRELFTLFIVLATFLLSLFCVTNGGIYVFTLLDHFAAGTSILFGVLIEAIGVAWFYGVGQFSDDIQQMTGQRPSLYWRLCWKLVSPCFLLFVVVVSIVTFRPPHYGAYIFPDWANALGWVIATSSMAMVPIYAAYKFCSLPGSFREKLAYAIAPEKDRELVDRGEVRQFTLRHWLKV
T1 sequence (P31645 whole entry): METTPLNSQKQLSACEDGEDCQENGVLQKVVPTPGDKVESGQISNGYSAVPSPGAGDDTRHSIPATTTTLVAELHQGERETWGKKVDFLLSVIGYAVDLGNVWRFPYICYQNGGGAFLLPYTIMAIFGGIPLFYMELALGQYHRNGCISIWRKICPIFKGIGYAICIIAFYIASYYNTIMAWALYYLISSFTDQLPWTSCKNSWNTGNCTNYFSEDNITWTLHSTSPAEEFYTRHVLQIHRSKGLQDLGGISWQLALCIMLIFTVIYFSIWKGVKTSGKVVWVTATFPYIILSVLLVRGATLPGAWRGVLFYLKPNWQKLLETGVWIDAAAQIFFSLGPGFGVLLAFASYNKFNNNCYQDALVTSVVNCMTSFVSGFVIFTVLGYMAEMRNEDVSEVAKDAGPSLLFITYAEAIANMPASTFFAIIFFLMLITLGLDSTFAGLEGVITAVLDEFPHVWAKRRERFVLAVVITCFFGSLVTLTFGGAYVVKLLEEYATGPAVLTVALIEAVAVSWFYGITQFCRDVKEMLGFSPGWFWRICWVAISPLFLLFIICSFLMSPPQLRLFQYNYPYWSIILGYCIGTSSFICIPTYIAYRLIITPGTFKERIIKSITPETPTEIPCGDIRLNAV
T2 sequence (P23975 whole entry): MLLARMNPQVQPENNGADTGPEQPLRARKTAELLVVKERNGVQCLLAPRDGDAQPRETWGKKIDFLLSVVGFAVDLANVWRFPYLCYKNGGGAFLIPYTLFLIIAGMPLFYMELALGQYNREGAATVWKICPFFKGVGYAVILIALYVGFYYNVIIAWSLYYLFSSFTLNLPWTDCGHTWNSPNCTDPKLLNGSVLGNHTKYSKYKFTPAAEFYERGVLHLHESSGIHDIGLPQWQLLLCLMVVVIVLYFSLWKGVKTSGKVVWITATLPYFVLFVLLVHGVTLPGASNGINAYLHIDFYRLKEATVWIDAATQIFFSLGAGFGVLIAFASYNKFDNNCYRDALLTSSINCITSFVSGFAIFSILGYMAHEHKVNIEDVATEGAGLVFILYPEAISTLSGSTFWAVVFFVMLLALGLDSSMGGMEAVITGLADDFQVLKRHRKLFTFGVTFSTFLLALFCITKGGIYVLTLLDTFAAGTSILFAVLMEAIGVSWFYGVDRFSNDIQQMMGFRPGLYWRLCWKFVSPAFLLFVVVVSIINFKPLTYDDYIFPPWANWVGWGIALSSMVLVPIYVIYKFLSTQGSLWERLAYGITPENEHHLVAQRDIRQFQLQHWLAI

Row | SMILES | IC50 [1] [nM] | IC50 ([2]; read-out: Human IC50 (nM) NET) [nM] | IC50 [3] [nM] | IC50 ([2]; Human IC50 (nM) NET) [nM]
1 | CN[C@@H]1Cc2cccc(OC)c2[C@H](c2ccc(Cl)c(Cl)c2)C1 (single isomer, unassigned) [Compound 32b.1, 4-(3,4-dichlorophenyl)-5-methoxy-N-methyl-1,2,3,4-tetrahydronaphthalen-2-amine] | 359 | 2330 | 83 | –
2 | CN[C@@H]1Cc2cccc(OC)c2[C@H](c2ccc(Cl)c(Cl)c2)C1 (single isomer, unassigned) [Compound 32b.2, 4-(3,4-dichlorophenyl)-5-methoxy-N-methyl-1,2,3,4-tetrahydronaphthalen-2-amine] | 307 | 2320 | 496 | –
3 | CN[C@H]1Cc2cc(OC)ccc2[C@@H](c2ccc(Cl)c(Cl)c2)C1 (single isomer, unassigned) [Compound 32c.1, 4-(3,4-dichlorophenyl)-7-methoxy-N-methyl-1,2,3,4-tetrahydronaphthalen-2-amine] | 68 | 571 | 18 | –
4 | CN[C@H]1Cc2cc(OC)ccc2[C@@H](c2ccc(Cl)c(Cl)c2)C1 (single isomer, unassigned) [Compound 32c.2, 4-(3,4-dichlorophenyl)-7-methoxy-N-methyl-1,2,3,4-tetrahydronaphthalen-2-amine] | 29 | 112 | 109 | –
5 | CN[C@H]1Cc2cc(OC)ccc2[C@@H](c2ccc(Cl)c(Cl)c2)C1 (single isomer, unassigned) [Compound 32c.4, 4-(3,4-dichlorophenyl)-7-methoxy-N-methyl-1,2,3,4-tetrahydronaphthalen-2-amine] | 209 | 111 | 78 | –
6 | COc1ccc2c(c1)C(c1ccc(Cl)c(Cl)c1)CC(N(C)C)C2 (single isomer, unassigned) [Compound 33a.1, 4-(3,4-dichlorophenyl)-6-methoxy-N,N-dimethyl-2,3,4-tetrahydronaphthalen-2-amine] | 475 | 2310 | 781 | –
7 | COc1ccc2c(c1)C(c1ccc(Cl)c(Cl)c1)CC(N(C)C)C2 (single isomer, unassigned) [Compound 33a.2, 4-(3,4-dichlorophenyl)-6-methoxy-N,N-dimethyl-2,3,4-tetrahydronaphthalen-2-amine] | 156 | 2260 | 396 | –
8 | COc1ccc2c(c1)C(c1ccc(Cl)c(Cl)c1)CC(N(C)C)C2 (single isomer, unassigned) [Compound 33a.3, 4-(3,4-dichlorophenyl)-6-methoxy-N,N-dimethyl-2,3,4-tetrahydronaphthalen-2-amine] | 207 | 1170 | 2290 | –
9 | COc1ccc2c(c1)C(c1ccc(Cl)c(Cl)c1)CC(N(C)C)C2 (single isomer, unassigned) [Compound 33a.4, 4-(3,4-dichlorophenyl)-6-methoxy-N,N-dimethyl-2,3,4-tetrahydronaphthalen-2-amine] | 808 | 1700 | 1410 | –
10 | COc1ccc2c(c1)C[C@H](N(C)C)C[C@@H]2c1ccc(Cl)c(Cl)c1 (single isomer, unassigned) [Compound 33c.1, 4-(3,4-dichlorophenyl)-7-methoxy-N,N-dimethyl-1,2,3,4-tetrahydronaphthalen-2-amine] | 24 | 943 | 194 | –
11 | COc1ccc2c(c1)C[C@H](N(C)C)C[C@@H]2c1ccc(Cl)c(Cl)c1 (single isomer, unassigned) [Compound 33c.2, 4-(3,4-dichlorophenyl)-7-methoxy-N,N-dimethyl-1,2,3,4-tetrahydronaphthalen-2-amine] | 8 | 684 | 67 | –
12 | COc1ccc2c(c1)C[C@H](N(C)C)C[C@@H]2c1ccc(Cl)c(Cl)c1 (single isomer, unassigned) [Compound 33c.3, 4-(3,4-dichlorophenyl)-7-methoxy-N,N-dimethyl-1,2,3,4-tetrahydronaphthalen-2-amine] | 616 | 906 | 83 | –
13 | COc1ccc2c(c1)C[C@H](N(C)C)C[C@@H]2c1ccc(Cl)c(Cl)c1 (single isomer, unassigned) [Compound 33c.4, 4-(3,4-dichlorophenyl)-7-methoxy-N,N-dimethyl-1,2,3,4-tetrahydronaphthalen-2-amine] | 92 | 1900 | 224 | –
14 | CN(C)[C@H]1CCc2ccccc2[C@H]1c1ccc(Cl)c(Cl)c1 (single isomer, unassigned) [Compound 37a, 1-(3,4-dichlorophenyl)-N,N-dimethyl-1,2,3,4-tetrahydronaphthalen-2-amine] | 355 | 2380 | 235 | –
15 | CN(C)[C@H]1CCc2ccccc2[C@H]1c1ccc(Cl)c(Cl)c1 (single isomer, unassigned) [Compound 37b, 1-(3,4-dichlorophenyl)-N,N-dimethyl-1,2,3,4-tetrahydronaphthalen-2-amine] | 742 | 499 | 106 | –
16 | CN(C)[C@H]1CCc2ccccc2[C@H]1c1ccc(Cl)c(Cl)c1 (single isomer, unassigned) [Compound 37c, 1-(3,4-dichlorophenyl)-N,N-dimethyl-1,2,3,4-tetrahydronaphthalen-2-amine] | 70 | 1190 | 284 | –
17 | CN(C)[C@H]1CCc2ccccc2[C@H]1c1ccc(Cl)c(Cl)c1 (single isomer, unassigned) [Compound 37d, 1-(3,4-dichlorophenyl)-N,N-dimethyl-1,2,3,4-tetrahydronaphthalen-2-amine] | 3150 | 1010 | 36 | –
18 | CNC1c2ccccc2CCC1c1ccc(Cl)c(Cl)c1 (single isomer, unassigned) [Compound 40a, 2-(3,4-dichlorophenyl)-N-methyl-1,2,3,4-tetrahydronaphthalen-l-amine] | 2470 | > 10000 | 3410 | –
19 | CNC1c2ccccc2CCC1c1ccc(Cl)c(Cl)c1 (single isomer, unassigned) [Compound 40b, 2-(3,4-dichlorophenyl)-N-methyl-1,2,3,4-tetrahydronaphthalen-l-amine] | 7720 | > 10000 | 1790 | –
20 | CN(C)[C@@H]1c2ccccc2CC[C@@H]1c1ccc(Cl)c(Cl)c1 (single isomer, unassigned) [Compound 41a, cis-2-(3,4-dichlorophenyl)-N,N-dimethyl-1,2,3,4-tetrahydronaphthalen-1-amine] | 3170 | > 10000 | 2280 | –
21 | CN(C)[C@@H]1c2ccccc2CC[C@@H]1c1ccc(Cl)c(Cl)c1 (single isomer, unassigned) [Compound 41b, cis-2-(3,4-dichlorophenyl)-N,N-dimethyl-1,2,3,4-tetrahydronaphthalen-1-amine] | 9740 | > 10000 | 1120 | –
22 | CC(N)C1=Cc2ccccc2[C@H](c2ccc(Cl)c(Cl)c2)C1 (single isomer, unassigned) [Compound 45] | 876 | – | 174 | 53
23 | CC(N)C1=Cc2ccccc2[C@H](c2ccc(Cl)c(Cl)c2)C1 (single isomer, unassigned) [Compound 46] | 50 | – | 1660 | 580
24 | CNC(C)C1=Cc2ccccc2[C@H](c2ccc(Cl)c(Cl)c2)C1 (single isomer, unassigned) [Compound 47] | 44 | 1180 | 1140 | –
25 | CC(N)[C@@H]1Cc2ccccc2[C@H](c2ccc(Cl)c(Cl)c2)C1 (single isomer, unassigned) [Compound 52] | 8 | – | 622 | 122
26 | CC([C@@H]1Cc2ccccc2[C@H](c2ccc(Cl)c(Cl)c2)C1)N(C)C (single isomer, unassigned) [Compound 53] | 58 | 399 | 495 | –
27 | CC([C@@H]1Cc2ccccc2[C@H](c2ccc(Cl)c(Cl)c2)C1)N(C)C (single isomer, unassigned) [Compound 54] | 815 | 1700 | 1900 | –
28 | CC1C[C@@H](c2ccc(Cl)c(Cl)c2)c2ccccc2/C1=N\O (single isomer, unassigned) [Compound 57] | 3180 | 3890 | 997 | –
